pEC50: −log10 of the molar value. Read-outs that look alike come from different tables or passages of the source.
System: HBV
Experiment: HBV replication inhibition assay (BDNA assay) in HepG2.2.15 cells
Assay type: cell-based
Settings: read-out: HepG2.2.15 EC50 HBV DNA
Protocol: HBV replication inhibition by the disclosed compounds were determined in cells infected or transfected with HBV or cells with stably integrated HBV, such as HepG2.2.15 cells (Sells et al. 1987). In this example, HepG2.2.15 cells were maintained in cell culture medium containing 10% fetal bovine serum (FBS), Geneticin, L-glutamine, penicillin and streptomycin. HepG2.2.15 cells were seeded in 96-well plates at a density of 40,000 cells/well and were treated with serially diluted compounds at a final DMSO concentration of 0.5% either alone or in combination by adding drugs in a checker box format. Cells were incubated with compounds for three days, after which medium was removed and fresh medium containing compounds was added to cells and incubated for another three days. At day 6, supernatant was removed and treated with DNase at 37° C. for 60 minutes, followed by enzyme inactivation at 75° C. for 15 minutes. Encapsidated HBV DNA was released from the virions and covalently linked HBV polymerase by incubating in lysis buffer (Affymetrix QS0010) containing 2.5 μg proteinase K at 50° C. for 40 minutes. HBV DNA was denatured by addition of 0.2 M NaOH and detected using a branched DNA (BDNA) QuantiGene assay kit according to manufacturer recommendation (Affymetrix). HBV DNA levels were also quantified using qPCR, based on amplification of encapsidated HBV DNA extraction with QuickExtraction Solution (Epicentre Biotechnologies) and amplification of HBV DNA using HBV specific PCR probes that can hybridize to HBV DNA and a fluorescently labeled probe for quantitation. In addition, cell viability of HepG2.2.15 cells incubated with test compounds alone or in combination was determined by using CellTitre-Glo reagent according to the manufacturer protocol (Promega). The mean background signal from wells containing only culture medium was subtracted from all other samples, and percent inhibition at each compound concentration was calculated by normalizing to signals from HepG2.2.15 cells treated with 0.5% DMSO using equation E1.
% inhibition=(DMSOave−Xi)/DMSOave×100% E1
where DMSOave is the mean signal calculated from the wells that were treated with DMSO control (0% inhibition control) and Xi is the signal measured from the individual wells. EC50 values, effective concentrations that achieved 50% inhibitory effect, were determined by non-linear fitting using Graphpad Prism software (San Diego, Calif.) and equation E2.
Y=Ymin+(Ymax−Ymin)/(1+10(Log EC50−X)×HillSlope) E2
where Y represents percent inhibition values and X represents the logarithm of compound concentrations.
Selected disclosed compounds were assayed in the HBV replication assay (BDNA assay), as described above, and a representative group of these active compounds is shown in Table 3.

[1] = Hepatitis B virus, HepG2.2.15, 144 h, HepG2.2.15 cells, BDNA assay, encapsidated HBV DNA in supernatant at day 6

| SMILES | pEC50 [1] | other results |
| --- | --- | --- |
| N#Cc1cc(NC(=O)N2CCc3nn4c(c3C2)C(F)(F)CCC(CNC(=O)C(F)(F)F)C4)ccc1F (stereo not drawn) [Example 51, N-(3-Cyano-4-fluorophenyl)-11,11-difluoro-8-((2,2,2-trifluoroacetamido)methyl)-3,4,8,9,10,11-hexahydro-1H-pyrido[4′,3′:3,4]pyrazolo[1,5-a]azepine-2(7H)-carboxamide] | – | pEC50 (Hepatitis B virus, HepG2.2.15, 144 h): 7.49 |
| COC(=O)NCC1CCC(F)(F)c2c3c(nn2C1)CCN(C(=O)Nc1ccc(F)c(C#N)c1)C3 (stereo not drawn) [Example 53, Methyl ((2-((3-cyano-4-fluorophenyl)carbamoyl)-11,11-difluoro-2,3,4,7,8,9,10,11-octahydro-1H-pyrido[4′,3′:3,4]pyrazolo[1,5-a]azepin-8-yl)methyl)-carbamate] | 8.00 | – |
| O=C(Nc1ccc(F)c(Br)c1F)N1CCc2nn3c(c2C1)C(F)(F)CC[C@@H](O)C3 [Example 12, (R)-N-(3-Bromo-2,4-difluorophenyl)-11,11-difluoro-8-hydroxy-3,4,8,9,10,11-hexahydro-1H-pyrido[4′,3′:3,4]pyrazolo[1,5-a]azepine-2(7H)-carboxamide] | 7.72 | – |
| O=C(Nc1ccnc(Br)c1F)N1CCc2nn3c(c2C1)C(F)(F)CCC(O)(CF)C3 (single isomer, unassigned) [Example 38, (S*)-N-(2-Bromo-3-fluoropyridin-4-yl)-11,11-di fluoro-8-(fluoromethyl) -8-hydroxy-3,4,8,9,10,11-hexahydro-1H-pyrido[4′,3′:3,4]pyrazolo[1,5-a]azepine-2(7H)-carboxamide] | 7.08 | – |
| O=C(Nc1ccnc(Br)c1F)N1CCc2nn3c(c2C1)C(F)(F)CC(CO)CC3 (single isomer, unassigned) [Example 133, (S*)-N-(2-Bromo-3-fluoropyridin-4-yl)-11,11-difluoro-9-(hydroxymethyl)-3,4,8,9,10,11-hexahydro-1H-pyrido[4′,3′:3,4]pyrazolo[1,5-a]azepine-2(7H)-carboxamide] | 7.42 | – |
| N#Cc1c(F)ccc(NC(=O)N2CCc3nn4c(c3C2)C(F)(F)CC[C@@H](O)C4)c1F [Example 11, (R)-N-(3-Cyano-2,4-difluorophenyl)-11,11-difluoro-8-hydroxy-3,4,8,9,10,11-hexahydro-1H-pyrido[4′,3′:3,4]pyrazolo[1,5-a]azepine-2(7H)-carboxamide] | 7.62 | – |
| C[C@@H]1Cc2nn3c(c2CN1C(=O)Nc1ccc(F)c(C#N)c1)C(F)(F)CCC(CO)C3 (single isomer, unassigned) [Example 75, (3R,8S*)-N-(3-Cyano-4-fluorophenyl)-11,11-difluoro-8-(hydroxymethyl) -3-methyl-3,4,8,9,10,11-hexahydro-1H-pyrido[4′,3′:3,4]pyrazolo[1,5-a]azepine-2(7H)-carboxamide] | – | pEC50 (HepG2.2.15 cells, BDNA assay, encapsidated HBV DNA in supernatant at day 6): 8.30 |
| C#CC1(O)CCC(F)(F)c2c3c(nn2C1)C[C@@H](C)N(C(=O)Nc1ccnc(C(F)F)c1F)C3 (single isomer, unassigned) [Example 97, (3R,8R*)-N-(2-(Difluoromethyl)-3-fluoropyridin-4-yl)-8-ethynyl-11,11-difluoro-8-hydroxy-3-methyl-3,4,8,9,10,11-hexahydro-1H-pyrido[4′,3′:3,4]pyrazolo[1,5-a]azepine-2(7H)-carboxamide] | 7.46 | – |
| N#Cc1cc(NC(=O)N2CCc3nn4c(c3C2)C(F)(F)CCC(F)(CO)C4)ccc1F (stereo not drawn) [Example 45, N-(3-Cyano-4-fluorophenyl)-8,11,11-trifluoro-8-(hydroxymethyl)-3,4,8,9,10,11-hexahydro-1H-pyrido[4′,3′:3,4]pyrazolo[1,5-a]azepine-2(7H)-carboxamide] | 8.30 | – |
| O=C(Nc1ccnc(Br)c1F)N1CCc2nn3c(c2C1)C(F)(F)CCC(F)(CO)C3 (stereo not drawn) [Example 46, N-(2-Bromo-3-fluoropyridin-4-yl)-8,11,11-trifluoro-8-(hydroxymethyl)-3,4,8,9,10,11-hexahydro-1H-pyrido[4′,3′:3,4]pyrazolo[1,5-a]azepine-2(7H)-carboxamide] | 7.92 | – |
| C[C@@H]1Cc2nn3c(c2CN1C(=O)Nc1ccnc(Br)c1F)C(F)(F)CCC(O)(CC#N)C3 (single isomer, unassigned) [Example 89, (3R,8S*)-N-(2-Bromo-3-fluoropyridin-4-yl)-8-(cyanomethyl)-11,11-difluoro-8-hydroxy-3-methyl-3,4,8,9,10,11-hexahydro-1H-pyrido[4′,3′:3,4]pyrazolo[1,5-a]azepine-2(7H)-carboxamide] | 7.55 | – |
| O=C(Nc1ccc(F)c(C(F)(F)F)c1)N1CCc2nn3c(c2C1)C(F)(F)CC[C@@H](O)C3 [Example 9, (R)-11,11-Difluoro-N-(4-fluoro-3-(trifluoromethyl)phenyl)-8-hydroxy-3,4,8,9,10,11-hexahydro-1H-pyrido[4′,3′:3,4]pyrazolo[1,5-a]azepine-2(7H)-carboxamide] | 7.55 | – |
| N#Cc1cc(NC(=O)N2CCc3nn4c(c3C2)C(F)(F)CC[C@H](O)C4)ccc1F [Example 3, (S)-N-(3-Cyano-4-fluorophenyl)-11,11-difluoro-8-hydroxy-3,4,8,9,10,11-hexahydro-1H-pyrido[4′,3′:3,4]pyrazolo[1,5-a]azepine-2(7H)-carboxamide] | 7.66 | – |
| C[C@@H]1Cc2nn3c(c2CN1C(=O)Nc1ccc(F)c(C#N)c1)C(F)(F)CCC(O)(CF)C3 (single isomer, unassigned) [Example 83, (3R,8R*)-N-(3-Cyano-4-fluorophenyl)-11,11-difluoro-8-(fluoromethyl)-8-hydroxy-3-methyl-3,4,8,9,10,11-hexahydro-1H-pyrido[4′,3′:3,4]pyrazolo[1,5-a]azepine-2(7H)-carboxamide] | 8.00 | – |
| C[C@@H]1Cc2nn3c(c2CN1C(=O)Nc1ccc(F)c(C#N)c1)C(F)(F)CC(O)CC3 (single isomer, unassigned) [Example 119, (3R,9S*)-N-(3-Cyano-4-fluorophenyl)-11,11-difluoro-9-hydroxyl-3-methyl-3,4,8,9,10,11-hexahydro-1H-pyrido[4′,3′:3,4]pyrazolo[1,5-a]azepine-2(7H)-carboxamide] | 9.00 | – |
| C[C@@H]1Cc2nn3c(c2CN1C(=O)Nc1ccc(F)c(C#N)c1)C(F)(F)C(O)CCC3 (stereo partly drawn) [Example 143, (3R)-N-(3-Cyano-4-fluorophenyl)-11,11-difluoro-10-hydroxy-3-methyl-1,3,4,7,8,9,10,11-octahydro-2H-pyrido[4′,3′:3,4]pyrazolo[1,5-a]azepine-2-carboxamide] | 6.81 | – |
| C[C@@H]1Cc2nn3c(c2CN1C(=O)Nc1ccc(F)c(C(F)(F)F)c1)C(F)(F)CC[C@@H](O)C3 [Example 69, (3R,8R)-11,11-Difluoro-N-(4-fluoro-3-(trifluoromethyl)phenyl)-8-hydroxy-3-methyl-3,4,8,9,10,11-hexahydro-1H-pyrido[4′,3′:3,4]pyrazolo[1,5-a]azepine-2(7H)-carboxamide] | 8.15 | – |
| O=C(Nc1ccnc(Br)c1F)N1CCc2nn3c(c2C1)C(F)(F)CC(CO)CC3 (single isomer, unassigned) [Example 135, (R*)-N-(2-Bromo-3-fluoropyridin-4-yl)-11,11-difluoro-9-(hydroxymethyl)-3,4,8,9,10,11-hexahydro-1H-pyrido[4′,3′:3,4]pyrazolo[1,5-a]azepine-2(7H)-carboxamide] | 7.72 | – |
| C[C@@H]1Cc2nn3c(c2CN1C(=O)Nc1ccnc(C(F)F)c1F)C(F)(F)CC[C@@H](O)C3 [Example 70, (3R,8R)-N-(2-(Difluoromethyl)-3-fluoropyridin-4-yl)-11,11-difluoro-8-hydroxy-3-methyl-3,4,8,9,10,11-hexahydro-1H-pyrido[4′,3′:3,4]pyrazolo[1,5-a]azepine-2(7H)-carboxamide] | 7.51 | – |
| C[C@@H]1Cc2nn3c(c2CN1C(=O)Nc1ccc(F)c(C(F)(F)F)c1)C(F)(F)CC[C@H](O)C3 [Example 73, (3R,8S)-11,11-Difluoro-N-(4-fluoro-3-(trifluoromethyl)phenyl)-8-hydroxy-3-methyl-3,4,8,9,10,11-hexahydro-1H-pyrido[4′,3′:3,4]pyrazolo[1,5-a]azepine-2(7H)-carboxamide] | 8.70 | – |
| N#Cc1cc(NC(=O)N2CCc3nn4c(c3C2)C(F)(F)CCC(O)(CF)C4)ccc1F (stereo not drawn) [Example 37, N-(3-Cyano-4-fluorophenyl)-11,11-difluoro-8-(fluoromethyl)-8-hydroxy-3,4,8,9,10,11-hexahydro-1H-pyrido[4′,3′:3,4]pyrazolo[1,5-a]azepine-2(7H)-carboxamide] | 7.82 | – |

— US20220235051A1, “DI-FLUORO AZEPANES AS HBV CAPSID ASSEMBLY MODULATORS” (priority 2019, published 2022)
